Measured values published in ChEMBL document CHEMBL5532658 (Eur J Med Chem, 2024).
Active and inactive are the calls of the source. The rule behind the calls is not given here.

How the values were obtained:
[1] = AUC(0 to t) in CD1 mouse at 10 mg/kg, po measured upto 24 hrs by LC-MS/MS analysis; format: ADME, organism-based; details: in vivo
[2] = system: MDA-MB-231; experiment: Downregulation of Rb protein phosphorylation at Ser608 in human MDA-MB-231 cells incubated for 24 hrs by Western blot analysis; format: functional, cell-based; details: dose 37-333 nM
[3] = system: MDA-MB-453; experiment: Downregulation of Rb protein phosphorylation at Thr821 in human MDA-MB-453 cells incubated for 24 hrs by Western blot analysis; format: functional, cell-based; details: dose 37-333 nM
[4] = system: MDA-MB-453; experiment: Downregulation of Rb protein phosphorylation at Ser795 in human MDA-MB-453 cells incubated for 24 hrs by Western blot analysis; format: functional, cell-based; details: dose 37-333 nM
[5] = Cmax in CD1 mouse at 10 mg/kg, po measured upto 24 hrs by LC-MS/MS analysis; format: ADME, organism-based; details: in vivo
[6] = Toxicity in Balb/c mouse xenografted with human MDA-MB-231 cells assessed as change in body weight at 5 to 10 mg/kg po administered once daily for 21 days and measured every three days; format: organism-based; details: in vivo, 504 h, dose 5-10 mg/kg, time 21 day
[7] = target: T1, Dual specificity mitogen-activated protein kinase kinase 5 (Homo sapiens) (UniProt Q13163); experiment: Inhibition of MAP2K5 (unknown origin) assessed as remaining activity at 1 uM by discoverX kinomescan assay relative to control
T1 sequence (whole entry): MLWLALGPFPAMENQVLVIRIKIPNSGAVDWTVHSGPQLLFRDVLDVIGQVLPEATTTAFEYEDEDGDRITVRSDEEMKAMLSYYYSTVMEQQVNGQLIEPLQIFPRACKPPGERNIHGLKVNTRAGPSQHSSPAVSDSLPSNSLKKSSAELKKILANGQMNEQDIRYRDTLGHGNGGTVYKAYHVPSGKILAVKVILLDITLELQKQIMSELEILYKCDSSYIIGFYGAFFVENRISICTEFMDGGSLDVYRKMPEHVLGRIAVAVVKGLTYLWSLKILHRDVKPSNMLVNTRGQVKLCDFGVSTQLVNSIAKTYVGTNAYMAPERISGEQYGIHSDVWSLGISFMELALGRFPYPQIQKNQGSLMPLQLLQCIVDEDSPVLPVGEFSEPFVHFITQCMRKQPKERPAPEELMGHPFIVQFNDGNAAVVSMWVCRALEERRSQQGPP

[8] = system: MDA-MB-231; experiment: Inhibition of RNA polymerase 2 C-terminal domain phosphorylation at Ser7 in heptad repeat in human MDA-MB-231 cells at 37 to 333 nM incubated for 24 hrs by Western blotting analysis; format: cell-based; details: dose 37-333 nM
[9] = target: CDK7/Cyclin H/MNAT1 (Homo sapiens, UniProt P50613); experiment: Inhibition of human His-tagged CDK7/cyclin H/MNAT1 expressed in baculovirus infected insect cells preincubated for 10 mins followed by substrate and ATP addition and measured after 60 mins by ADP-Glo kinase assay; design: species or system Insect cell
[10] = system: MDA-MB-231; experiment: Downregulation of Rb protein phosphorylation at Ser795 in human MDA-MB-231 cells incubated for 24 hrs by Western blot analysis; format: functional, cell-based; details: dose 37-333 nM
[11] = target: Cyclin-dependent kinase 18 (Homo sapiens) (UniProt Q07002); experiment: Inhibition of CDK18 (unknown origin) at 1 uM by discoverX kinomescan assay
[12] = target: T2, Mitogen-activated protein kinase 15 (Homo sapiens) (UniProt Q8TD08); experiment: Inhibition of ERK7 (unknown origin) at 1 uM by discoverX kinomescan assay
T2 sequence (whole entry): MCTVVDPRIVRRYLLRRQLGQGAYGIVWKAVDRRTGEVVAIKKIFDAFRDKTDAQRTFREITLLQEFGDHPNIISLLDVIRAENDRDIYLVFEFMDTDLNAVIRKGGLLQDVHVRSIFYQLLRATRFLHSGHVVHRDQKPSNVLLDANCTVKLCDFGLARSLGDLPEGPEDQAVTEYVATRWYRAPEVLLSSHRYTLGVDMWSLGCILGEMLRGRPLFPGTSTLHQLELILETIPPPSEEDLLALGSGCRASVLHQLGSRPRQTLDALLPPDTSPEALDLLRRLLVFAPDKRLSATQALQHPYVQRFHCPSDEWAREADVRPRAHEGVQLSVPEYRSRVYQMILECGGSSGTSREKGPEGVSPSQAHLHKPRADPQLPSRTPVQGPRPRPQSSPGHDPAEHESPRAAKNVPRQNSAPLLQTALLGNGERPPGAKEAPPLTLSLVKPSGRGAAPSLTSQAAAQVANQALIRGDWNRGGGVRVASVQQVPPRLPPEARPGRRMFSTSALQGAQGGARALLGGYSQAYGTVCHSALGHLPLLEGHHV

[13] = system: MDA-MB-231; experiment: Antiproliferative activity against human MDA-MB-231 cells incubated for 120 hrs by CCK-8 assay; format: functional, cell-based; details: MDA-MB-231, 120 h
[14] = system: MDA-MB-453; experiment: Downregulation of Rb protein phosphorylation at Ser807 in human MDA-MB-453 cells incubated for 24 hrs by Western blot analysis; format: functional, cell-based; details: dose 37-333 nM
[15] = target: T3, Dual specificity mitogen-activated protein kinase kinase 5 (Homo sapiens, UniProt Q13163); experiment: Inhibition of MAP2K5 (unknown origin) by discoverX kinomescan assay
T3 sequence (Q13163 whole entry): T1 sequence (whole entry)

[16] = system: MDA-MB-453; experiment: Downregulation of Rb protein phosphorylation at Ser608 in human MDA-MB-453 cells incubated for 24 hrs by Western blot analysis; format: functional, cell-based; details: dose 37-333 nM

CDK7/Cyclin H/MNAT1, sequence (P51946 whole entry): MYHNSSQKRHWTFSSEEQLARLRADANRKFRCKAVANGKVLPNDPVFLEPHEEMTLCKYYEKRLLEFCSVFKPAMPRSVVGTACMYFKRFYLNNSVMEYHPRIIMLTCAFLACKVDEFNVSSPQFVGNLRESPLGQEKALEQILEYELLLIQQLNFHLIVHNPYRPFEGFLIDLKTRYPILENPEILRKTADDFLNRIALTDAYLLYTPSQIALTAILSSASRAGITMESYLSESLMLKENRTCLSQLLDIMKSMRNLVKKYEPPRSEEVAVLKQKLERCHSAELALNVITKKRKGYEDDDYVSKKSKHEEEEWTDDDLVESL
CDK7/Cyclin H/MNAT1, sequence (P50613 whole entry): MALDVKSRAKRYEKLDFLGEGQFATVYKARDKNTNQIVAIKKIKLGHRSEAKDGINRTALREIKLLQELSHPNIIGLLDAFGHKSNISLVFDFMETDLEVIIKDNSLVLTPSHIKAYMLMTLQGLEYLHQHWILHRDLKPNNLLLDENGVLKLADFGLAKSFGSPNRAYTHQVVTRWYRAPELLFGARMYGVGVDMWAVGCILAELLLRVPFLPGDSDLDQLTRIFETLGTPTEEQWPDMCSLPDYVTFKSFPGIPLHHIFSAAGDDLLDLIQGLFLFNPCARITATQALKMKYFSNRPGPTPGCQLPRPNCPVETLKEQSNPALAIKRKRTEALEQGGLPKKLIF
CDK7/Cyclin H/MNAT1, sequence (P51948 whole entry, further chain): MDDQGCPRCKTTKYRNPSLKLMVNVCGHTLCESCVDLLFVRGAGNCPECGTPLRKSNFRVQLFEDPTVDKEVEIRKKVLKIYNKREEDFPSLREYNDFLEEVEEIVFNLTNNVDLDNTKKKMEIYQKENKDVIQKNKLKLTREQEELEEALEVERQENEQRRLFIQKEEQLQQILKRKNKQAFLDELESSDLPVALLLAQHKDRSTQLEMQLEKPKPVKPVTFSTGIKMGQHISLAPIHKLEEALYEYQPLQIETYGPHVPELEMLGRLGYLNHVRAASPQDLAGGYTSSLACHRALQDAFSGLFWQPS
Cyclin-dependent kinase 18 (Homo sapiens), sequence (Q07002 whole entry): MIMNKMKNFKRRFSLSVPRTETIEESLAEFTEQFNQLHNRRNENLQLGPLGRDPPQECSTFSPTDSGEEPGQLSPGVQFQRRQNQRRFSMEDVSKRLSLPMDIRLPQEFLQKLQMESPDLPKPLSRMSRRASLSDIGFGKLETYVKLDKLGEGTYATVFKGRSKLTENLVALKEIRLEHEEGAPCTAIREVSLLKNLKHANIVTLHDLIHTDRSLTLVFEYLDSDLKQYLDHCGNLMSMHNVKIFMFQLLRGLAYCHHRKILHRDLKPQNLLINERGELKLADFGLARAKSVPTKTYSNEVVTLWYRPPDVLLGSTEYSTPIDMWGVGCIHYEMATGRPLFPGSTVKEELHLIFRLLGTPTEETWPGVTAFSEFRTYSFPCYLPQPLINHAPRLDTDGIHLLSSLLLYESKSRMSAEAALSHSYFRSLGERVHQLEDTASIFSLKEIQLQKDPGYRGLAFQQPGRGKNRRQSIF

SMILES: CP(C)(=O)c1c(C#N)ccc2c(-c3nc(N[C@@H]4CNC[C@@H](F)C4)nc4ccsc34)c[nH]c12
- AUC(0-t) at 24 h [1]: 513 ng·h/mL
- Activity [2]: Dose-Dependent Effect
- Activity [3]: Dose-Dependent Effect
- Activity [4]: Dose-Dependent Effect
- Cmax [5]: 117 ng/mL
- Activity [6]: Non-Toxic
- Activity [7]: < 1%
- inhibition [8]: Active
- IC50 [9]: 6.5 nM
- Activity [10]: Dose-Dependent Effect
- inhibition [11]: inactive
- inhibition [12]: inactive
- EC50 [13]: 320 nM
- Activity [14]: Dose-Dependent Effect
- IC50 [15]: 170 nM
- Activity [16]: Dose-Dependent Effect
